Measured values taken from patent US20060286547A1, “Time-of-addition assay for identifying anti-viral compounds” (priority 2003, published 2006).

System: HIV-1 (strain 111B)
Test: Time-of-addition assay with luminescent cells in 96- and 384-well plates
Type: cell-based
Conditions: early stages of addition; ATA 5 μM, AMD3100 and T20 1 μM; 96-well and 384-well plates; FIG. 6 and FIG. 7
Method: A MT4 cell line was used In the present example expressing a luciferase reporter gene under the control of a HIV-1-LTR promoter element. Cells were counted and a cell suspension of 500.000 ml or 350.000 ml was made for use in 96-well or 384 wells, respectively. The cells were centrifuged for 10 minutes at 400 g. Subsequently, cells were infected with at high multiplicity of infection with HIV-1 (strain 111B) at a host cell/virus titer of 1/1. Unabsorbed virus was removed by two washing steps in order to synchronize the infection. After the second washing step, cells were resuspended and the suspensions were distributed in the wells of a micro-titer plate in an amount of 95 μl or 36 μl in a 96-well or a 384 well format, respectively. At predefined time points 5 μl (96 well) and 4 μl (384 well) of compound was added. As compounds to be tested, reference compounds having well known mechanisms of action were included in the plates. […]
ATA was used in a concentration of 5 μM; AMD3100, T20 EFV ad SQV were used in a concentration of 1 μM and TMC143205 was used in a concentration of 1 μM. […] 100 μl Luc-lit™ substrate was added to each well and luminescence was monitored by processing the 96- and 384-well plates in a PerkinElmer-Viewlux™ within 30 minutes. HIV replication was quantified by measuring the luciferase signal.

## O=C(O)C1=CC(=C(c2ccc(O)c(C(=O)O)c2)c2ccc(O)c(C(=O)O)c2)C=CC1=O [ATA]
  inhibitory activity as a function of time of addition: strong inhibitory activity

## c1cc(CN2CCCNCCNCCCNCC2)ccc1CN1CCCNCCNCCCNCC1 [AMD3100]
  inhibitory activity as a function of time of addition: strong inhibitory activity
